Experiment [1] concerns C6. Description: Antiproliferative activity against rat C6 cells after 24 hrs by MTT assay. The note with it: C6, 24 h. Background: Formazan colour is commonly taken as a measure of viable cells.
Experiment [2] concerns A549. Description: Antiproliferative activity against human A549 cells after 24 hrs by MTT assay. To be noted: A549, 24 h.

Converted amounts (≈) assume the structure as drawn.

Broadly, the IC50 is the concentration that inhibits the measured activity by half. Higher therefore signals weaker potency. `O=C(CSC(=S)NN1CCN(c2ccccc2)CC1)NCc1ccc2c(c1)OCO2`: the IC50 is 163 µg/mL (≈ 367 µM) in experiment [1] and > 1000 µg/mL in experiment [2].

With `CC1CCN(NC(=S)SCC(=O)NCc2ccc3c(c2)OCO3)CC1`, the values for the IC50 in experiment [1] and in experiment [2] were 567 µg/mL (≈ 1490 µM) and 810 µg/mL (≈ 2120 µM), respectively.

As to `CN1CCN(NC(=S)SCC(=O)NCc2ccc3c(c2)OCO3)CC1`, the IC50 in experiment [1] is 167 µg/mL (≈ 436 µM); in experiment [2], > 1000 µg/mL.

As for `O=C(CSC(=S)NN1CCN(c2ncccn2)CC1)NCc1ccc2c(c1)OCO2`, the figures for the IC50 in experiment [1] and in experiment [2] were 48.3 µg/mL (≈ 108 µM) and 833 µg/mL (≈ 1870 µM), respectively.

Take `CCN1CCN(NC(=S)SCC(=O)NCc2ccc3c(c2)OCO3)CC1`: the figures for the IC50 in experiment [1] and in experiment [2] were 157 µg/mL (≈ 395 µM) and 850 µg/mL (≈ 2140 µM), respectively.

On to `O=C(CSC(=S)NN1CCOCC1)NCc1ccc2c(c1)OCO2`, for which the IC50 in experiment [1] was 207 µg/mL (≈ 559 µM); in experiment [2] it was 700 µg/mL (≈ 1890 µM).

In the case of `COc1ccc(N2CCN(NC(=S)SCC(=O)NCc3ccc4c(c3)OCO4)CC2)cc1`, the results for the IC50 in experiment [1] and in experiment [2] were 58.3 µg/mL (≈ 123 µM) and > 1000 µg/mL, respectively.

`O=C(CSC(=S)NN1CCCCC1)NCc1ccc2c(c1)OCO2`: the IC50 in experiment [1] amounted to 633 µg/mL (≈ 1720 µM); in experiment [2], 875 µg/mL (≈ 2380 µM).

As to `O=C(CSC(=S)NN1CCN(c2ccc([N+](=O)[O-])cc2)CC1)NCc1ccc2c(c1)OCO2`, the IC50 in experiment [1] was 23.3 µg/mL (≈ 47.7 µM); in experiment [2] it was > 1000 µg/mL.

As for `O=C(CSC(=S)NN1CCSCC1)NCc1ccc2c(c1)OCO2`, the IC50 in experiment [1] is 220 µg/mL (≈ 571 µM); in experiment [2], > 1000 µg/mL.
